For experiment [1], the system named is Kuramochi cells. The experiment is described as follows: IncuCyte Kuramochi Assay (cell proliferation). The class given is cell-based. The note with it: 72 h, Kuramochi cells labeled with mApple-H2B, cell count, read-out: IncuCyte - Kuramochi RB-WT: IC50. Here is the method: IncuCyte® assay was used to measure the effect of disclosed compounds on cell proliferation. Fluorescent microscopy images of cells were taken immediately after compound treatment and 72 hours later. Image analysis software was used to obtain cell counts as a function of compound concentration. Kuramochi cells labeled with mApple-H2B were seeded on 384-well assay-ready plates. Plates were placed in an IncuCyte® (Sartorius) and scanned at 0 and 72 hours. IncuCyte® software was used to count the number of fluorescent nuclei in each well. The fold change in cell count from 0 to 72 hours in wells treated with increasing compounds concentrations (10 pts, ½ log dilution, 20 μM top concentration) was normalized to DMSO control wells. The normalized cell counts were fit with dose response curves and a […] was calculated.

In experiment [2] the target is T1, CDK2/Cyclin E1 (Homo sapiens, UniProt P24941).
T1 construct: purchased 14-475
The experiment is described as follows: Caliper Assay (LabChip EZ Reader mobility shift assay), inhibition of CDK2/Cyclin E1 activity. The note with it: 2.5 nM CDK2/Cyclin E1(14-475), 100 μM ATP, 30 min preincubation; read-out: Caliper Assay (CDK2/CCNE1): IC50. It counts as biochemical. Here is the method: Inhibition of CDK2/Cyclin E1 activity in the presence of compounds of the present disclosure was evaluated using a Caliper LabChip® EZ Reader mobility shift assay. In the assay, activated CDK2/Cyclin E1 catalyzes the phosphorylation of a fluorescently tagged peptide 5-FAM-QSPKKG-CONH2 (PerkinElmer, FL Peptide 18) which induces a difference in capillary electrophoresis mobility. The peptide substrate and product were measured, and the conversion ratio was used to determine the inhibition (as % activity and IC50 values) of CDK2/Cyclin E1. Reactions contained 50 mM HEPES pH 7.5, 10 mM MgCl2, 1 mM EDTA, 2 mM DTT, 0.01% Brij35, 0.5 mg/mL BSA, 0.1% DMSO, 2.5 nM CDK2/Cyclin E1(14-475), 100 μM ATP, and 1.5 μM fluorescent peptide substrate.
Dose titrations of inhibitors in 100% DMSO were combined with 3.25 nM CDK2/Cyclin E1(14-475) and 130 μM of ATP in reaction buffer. The mixtures were incubated for 30 minutes before the addition of fluorescent peptide substrate to initiate the kinase reaction. The final conditions were 2.5 nM CDK2/Cyclin E1(14-475), 100 μM ATP, and 1.5 μM fluorescent peptide. The reactions were stopped after 100 minutes with the addition of EDTA (6 mM final EDTA concentration). The stopped reactions were analyzed on a Caliper LabChip© EZ Reader II. The conversion ratios were normalized to yield % activity, plotted against compound concentration, and fit to a four-parameter equation to determine the IC50 for each compound.

The structures appear in SMILES notation. pIC50: −log10 of the molar value.

`Cc1cc(O)nn1C(C)c1nc(C2CN(C(=O)c3cncs3)CC23CN(C(=O)[C@H]2CC2(C)C)C3)no1` (some centres unmarked) [I-63]: the pIC50 was less than 5.00 in experiment [1] and 5.00 to 6.00 in experiment [2].

Turning to `CC(c1nc(C2CN(C(=O)c3cncs3)CC23CN(C(=O)[C@H]2CC2(C)C)C3)no1)n1cc(C2CCCC2)cn1` (some centres unmarked) [I-64], the pIC50 in experiment [1] is less than 5.00; in experiment [2], 7.00 to 8.00.

Take `CC1(C)C[C@@H]1C(=O)N1CC2(CN(C(=O)c3cncs3)CC2c2nnc(C(F)(F)c3ccc(Cl)cc3)o2)C1` (some centres unmarked) [I-65]: the pIC50 is less than 5.00 in experiment [1] and 5.00 to 6.00 in experiment [2].

For `Cc1nc(C)c(C(=O)N2CC(c3nnc(Cc4cccc(C5CCOCC5)n4)o3)C3(C2)CN(C(=O)[C@H]2CC2(C)C)C3)s1` (stereo partly drawn) [I-66, (2-((S)-2,2-dimethylcyclopropane-1-carbonyl)-8-(5-((6-(tetrahydro-2H-pyran-4-yl)pyridin-2-yl)methyl)-1,3,4-oxadiazol-2-yl)-2,6-diazaspiro[3.4]octan-6-yl)(2,4-dimethylthiazol-5-yl)methanone], the pIC50 in experiment [1] was less than 5.00; in experiment [2], 6.00 to 7.00.

For the compound `CC1(C)C[C@@H]1C(=O)N1CC2(CN(C(=O)c3cncs3)CC2c2nnc(Cc3nc4ccccc4o3)o2)C1` (some centres unmarked) [I-67], the pIC50 is less than 5.00 in experiment [1] and 5.00 to 6.00 in experiment [2].

On to `COc1ccc(C(F)(F)c2nnc(C3CN(C(=O)c4cncs4)CC34CN(C(=O)[C@H]3CC3(C)C)C4)o2)cc1` (some centres unmarked) [I-68], for which the pIC50 was less than 5.00 in experiment [1] and 6.00 to 7.00 in experiment [2].

On to `CC1(C)C[C@@H]1C(=O)N1CC2(CN(C(=O)c3cncs3)CC2c2nnc(C(F)(F)c3ccc(Br)cc3)o2)C1` (some centres unmarked) [I-69], for which the figures for the pIC50 in experiment [1] and in experiment [2] were less than 5.00 and 6.00 to 7.00, respectively.

Consider `CC1(C)C[C@@H]1C(=O)N1CC2(CN(C(=O)c3cncs3)CC2c2nnc(C(F)(F)c3ccccc3)o2)C1` (some centres unmarked) [I-70], for which the pIC50 is less than 5.00 in experiment [1] and 5.00 to 6.00 in experiment [2].

As to `CC1(C)C[C@@H]1C(=O)N1CC2(CN(C(=O)c3cncs3)CC2c2nnc(Cc3ccc4c(c3)CCCO4)o2)C1` (some centres unmarked) [I-71], the pIC50 in experiment [1] is less than 5.00; in experiment [2], 5.00 to 6.00.

For the compound `CC1(C)C[C@@H]1C(=O)N1CC2(CN(C(=O)c3cncs3)CC2c2nnc(C(F)(F)c3ccc(C#N)cc3)o2)C1` (some centres unmarked) [I-72], the pIC50 is less than 5.00 in experiment [1] and 5.00 to 6.00 in experiment [2].

As to `CC1(C)C[C@@H]1C(=O)N1CC2(CN(C(=O)c3cncs3)CC2c2nnc(C(F)(F)c3cccc4ccccc34)o2)C1` (some centres unmarked) [I-73], the pIC50 in experiment [1] was less than 5.00; in experiment [2] it was 6.00 to 7.00.

Turning to `CC(c1nc(C2CN(C(=O)c3cncs3)CC23CN(C(=O)[C@H]2CC2(C)C)C3)no1)n1ncc2ccccc21` (some centres unmarked) [I-74], the figures for the pIC50 in experiment [1] and in experiment [2] were less than 5.00 and 5.00 to 6.00, respectively.

For the compound `CC(c1nc(C2CN(C(=O)c3cncs3)CC23CN(C(=O)[C@H]2CC2(C)C)C3)no1)n1cc2ccccc2n1` (some centres unmarked) [I-75], the pIC50 is less than 5.00 in experiment [1] and 6.00 to 7.00 in experiment [2].

On to `CC1(C)C[C@@H]1C(=O)N1CC2(CN(C(=O)c3cncs3)CC2c2nnc(C(F)(F)c3ccc(F)c(F)c3)o2)C1` (some centres unmarked) [I-76], for which the pIC50 in experiment [1] was less than 5.00; in experiment [2], 6.00 to 7.00.

On to `CC(c1cc[nH]n1)c1nc(C2CN(C(=O)c3cncs3)CC23CN(C(=O)[C@H]2CC2(C)C)C3)no1` (stereo partly drawn) [I-77, (8-(5-(1-(1H-pyrazol-3-yl)ethyl)-1,2,4-oxadiazol-3-yl)-2-((S)-2,2-dimethylcyclopropane-1-carbonyl)-2,6-diazaspiro[3.4]octan-6-yl)(thiazol-5-yl)methanone], for which the pIC50 in experiment [1] was less than 5.00; in experiment [2] it was 5.00 to 6.00.

With `CC(c1cccc(C2CCOCC2)n1)c1nnc(C2CN(C(=O)c3cncs3)CC23CN(C(=O)[C@H]2CC2(C)C)C3)o1` (some centres unmarked) [I-78], the pIC50 in experiment [1] is less than 5.00; in experiment [2] it was 6.00 to 7.00.

On to `CC(C)(c1cc[nH]n1)c1nc(C2CN(C(=O)c3cncs3)CC23CN(C(=O)[C@H]2CC2(C)C)C3)no1` (some centres unmarked) [I-79], for which the pIC50 in experiment [1] was less than 5.00; in experiment [2], 5.00 to 6.00.

With `O=C(c1cncs1)N1CC(c2nnc(Cc3cccc(C4CCOCC4)n3)o2)C2(C1)CN(c1ncco1)C2` (centres unmarked) [I-80], the pIC50 in experiment [1] and in experiment [2] was less than 5.00 each time.

With `CC(c1nc(C2CN(C(=O)c3cncs3)CC23CN(C(=O)[C@H]2CC2(C)C)C3)no1)n1nc(Cl)cc1Cl` (some centres unmarked) [I-81], the pIC50 in experiment [1] is 5.30 to 6.30; in experiment [2], 5.00 to 6.00.

For the compound `CC(c1nc(C2CN(C(=O)c3cncs3)CC23CN(C(=O)[C@H]2CC2(C)C)C3)no1)n1ccc(C2CCOCC2)n1` (some centres unmarked) [I-82], the pIC50 in experiment [1] was less than 5.00; in experiment [2] it was 6.00 to 7.00.

Consider `CC1(C)C[C@@H]1C(=O)N1CC2(CN(C(=O)c3cncs3)CC2c2nnc(Cc3cccc(C4CCCCO4)n3)o2)C1` (some centres unmarked) [I-83], for which the pIC50 in experiment [1] was less than 5.00; in experiment [2] it was 6.00 to 7.00.

In the case of `CC1(C)C[C@@H]1C(=O)N1CC2(CN(C(=O)c3cnn(Cc4ccccc4)c3)CC2c2noc(COC3CCCC3)n2)C1` (some centres unmarked) [I-84], the pIC50 in experiment [1] was less than 5.00; in experiment [2], 5.00 to 6.00.

With `Cc1cc(C)n(Cc2nc(C3CN(C(=O)c4cnn(Cc5ccccc5)c4)CC34CN(C(=O)[C@H]3CC3(C)C)C4)no2)n1` (some centres unmarked) [I-85], the pIC50 in experiment [1] is less than 5.00; in experiment [2], 5.00 to 6.00.

`COC(=O)c1coc(C2CN(C(=O)c3cnn(Cc4ccccc4)c3)CC23CN(C(=O)[C@H]2CC2(C)C)C3)n1` (stereo partly drawn) [I-86, methyl 2-(6-(1-benzyl-1H-pyrazole-4-carbonyl)-2-((S)-2,2-dimethylcyclopropane-1-carbonyl)-2,6-diazaspiro[3.4]octan-8-yl)oxazole-4-carboxylate]: the pIC50 in experiment [1] and in experiment [2] was less than 5.00 throughout.

For the compound `CC1(C)C[C@@H]1C(=O)N1CC2(CN(C(=O)c3cnn(Cc4ccccc4)c3)CC2c2ccc(NC(=O)C3CCCCC3)cc2)C1` (stereo partly drawn) [I-87, N-(4-(6-(1-benzyl-1H-pyrazole-4-carbonyl)-2-((S)-2,2-dimethylcyclopropane-1-carbonyl)-2,6-diazaspiro[3.4]octan-8-yl)phenyl)cyclohexanecarboxamide], the pIC50 was 5.00 to 5.30 in experiment [1] and 5.00 to 6.00 in experiment [2].

Consider `C[C@H](NC(=O)c1coc(C2CN(C(=O)c3cnn(Cc4ccccc4)c3)CC23CN(C(=O)[C@H]2CC2(C)C)C3)n1)c1ccccc1` (some centres unmarked) [I-88], for which the results for the pIC50 in experiment [1] and in experiment [2] were less than 5.00 and 6.00 to 7.00, respectively.

For the compound `C[C@H](NC(=O)c1coc(C2CN(C(=O)c3cnn(Cc4ccccc4)c3)CC23CN(C(=O)[C@H]2CC2(C)C)C3)n1)C1CCCCC1` (some centres unmarked) [I-89], the pIC50 in experiment [1] is 5.00 to 5.30; in experiment [2] it was 6.00 to 7.00.

On to `C[C@@H](NC(=O)c1coc(C2CN(C(=O)c3cnn(Cc4ccccc4)c3)CC23CN(C(=O)[C@H]2CC2(C)C)C3)n1)C1CCCCC1` (some centres unmarked) [I-90], for which the results for the pIC50 in experiment [1] and in experiment [2] were 5.00 to 5.30 and 7.00 to 8.00, respectively.

For the compound `CC1(C)C[C@@H]1C(=O)N1CC2(CN(C(=O)c3cnn(Cc4ccccc4)c3)CC2c2nc(C(=O)NCc3ccccc3)co2)C1` (stereo partly drawn) [I-91, N-benzyl-2-(6-(1-benzyl-1H-pyrazole-4-carbonyl)-2-((S)-2,2-dimethylcyclopropane-1-carbonyl)-2,6-diazaspiro[3.4]octan-8-yl)oxazole-4-carboxamide], the pIC50 in experiment [1] is less than 5.00; in experiment [2], 6.00 to 7.00.

Consider `CC1(C)C[C@@H]1C(=O)N1CC2(CN(C(=O)c3cnn(Cc4ccccc4)c3)CC2c2nc(C(=O)NCC3CCCCC3)co2)C1` (some centres unmarked) [I-92], for which the pIC50 in experiment [1] is 5.00 to 5.30; in experiment [2], 7.00 to 8.00.

For the compound `CC1(C)C[C@@H]1C(=O)N1CC2(CN(C(=O)c3cnn(Cc4ccccc4)c3)CC2c2ccc(NCc3ccccc3)cc2)C1` (stereo partly drawn) [I-93, (1-benzyl-1H-pyrazol-4-yl)(8-(4-(benzylamino)phenyl)-2-((S)-2,2-dimethylcyclopropane-1-carbonyl)-2,6-diazaspiro[3.4]octan-6-yl)methanone], the pIC50 in experiment [1] was 5.00 to 5.30; in experiment [2], 5.00 to 6.00.

On to `CC(c1nnc(C2CN(C(=O)c3cncs3)CC23CN(C(=O)[C@H]2CC2(C)C)C3)o1)n1ccc(C2CCCC2)n1` (some centres unmarked) [I-96], for which the pIC50 in experiment [1] was less than 5.00; in experiment [2], 7.00 to 8.00.

As for `CC1(C)C[C@@H]1C(=O)N1CC2(CN(C(=O)c3cncs3)CC2c2nnc(C3(c4cccc(C5CCOCC5)n4)COC3)o2)C1` (some centres unmarked) [I-97], the pIC50 in experiment [1] is less than 5.00; in experiment [2], 6.00 to 7.00.

Take `CC1(C)C[C@@H]1C(=O)N1CC2(C1)CN(c1cccc3ncsc13)CC2c1nnc(C(F)(F)c2ccc(Cl)c(Cl)c2)o1` (stereo partly drawn) [I-98, (6-(benzo[d]thiazol-7-yl)-8-(5-((3,4-dichlorophenyl)difluoromethyl)-1,3,4-oxadiazol-2-yl)-2,6-diazaspiro[3.4]octan-2-yl)((S)-2,2-dimethylcyclopropyl)methanone]: the pIC50 in experiment [1] and in experiment [2] was less than 5.00 each time.

The record behind these values is US20260151375A1, “CDK2 INHIBITORS AND METHODS OF USING THE SAME” (Cedilla Therapeutics, Inc., priority 2022, published 2026).
